Molecular target: T1, recombinant human PAI-1 (Homo sapiens, UniProt P05121)
T1 construct: purchased Molecular Innovations, Inc
Test: Test Example 1: human PAI-1 inhibitory activity (tPA fluorogenic substrate, pH 7.5 Tris buffer)
Assay type: biochemical
Conditions: Tris buffer
Description: 50 mM Tris, 150 mM NaCl, 10 μg/ml BSA, 0.01% Tween80 (SIGMA-ALDRICH Corporation)

T1 sequence (P05121 24-402): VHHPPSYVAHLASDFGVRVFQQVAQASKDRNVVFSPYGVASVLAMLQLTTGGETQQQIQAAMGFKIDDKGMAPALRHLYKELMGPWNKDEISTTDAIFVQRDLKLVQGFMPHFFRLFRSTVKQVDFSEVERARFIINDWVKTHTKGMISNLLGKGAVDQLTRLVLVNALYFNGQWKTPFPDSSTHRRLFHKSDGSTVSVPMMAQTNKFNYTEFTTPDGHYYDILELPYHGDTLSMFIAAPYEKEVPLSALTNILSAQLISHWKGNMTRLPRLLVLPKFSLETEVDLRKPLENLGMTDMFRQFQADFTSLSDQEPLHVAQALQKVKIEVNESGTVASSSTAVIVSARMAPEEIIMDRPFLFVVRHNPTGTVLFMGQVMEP

Compound	Inhibition Rate of PAI-1 Activity (%) (Compound Concentration 5 μM)	Inhibition Rate of PAI-1 Activity (%) (Compound Concentration 10 μM)	Inhibition Rate of PAI-1 Activity (%) (Compound Concentration 25 μM)
CC(C)(C)c1ccc(CN(C(=O)C(=O)O)c2ccc(-c3ccc(OC(F)(F)F)cc3)cc2C(F)(F)F)cc1 [Compound 150]	33	75	87
O=C(O)C(=O)N(c1ccc(-c2ccc(OC(F)(F)F)cc2)cc1)C1CCCCC1 [Compound 253]	9	16	36
CCC(CC)Oc1ccc(N(Cc2ccc(C(C)(C)C)cc2)C(=O)C(=O)O)c(-c2ccc(OC(F)(F)F)cc2)c1 [Compound 207]	79	90	–
CC(C)(C)c1ccc(CN(C(=O)C(=O)O)c2ccccc2-c2ccc(OC(F)(F)F)cc2)cc1 [Compound 148]	17	55	98
CC(C)(C)c1ccc(COc2cccc(Oc3ccc(OC(F)(F)F)cc3)c2/C=C/C(=O)O)cc1 [Compound 85]	40	61	85
CC(C)(C)c1ccc(COc2c(Cl)cc(-c3ccc(OC(F)(F)F)cc3)cc2CCC(=O)O)cc1 [Compound 92]	25	63	97
CC(C)(C)c1ccc(CN(C(=O)C(=O)O)c2ccc(N3CCOCC3)c(-c3ccc(OC(F)(F)F)cc3)c2)cc1 [Compound 216]	75	88	84
CC(C)(C)c1ccc(COc2ccc(-c3cccc(C(=O)O)c3)cc2CCC(=O)O)cc1 [Compound 26]	–	9	25
CC(C)(C)c1ccc(-c2ccc(OCc3ccccc3)c(CCC(=O)O)c2)cc1 [Compound 48]	20	50	93
COc1ccccc1COc1ccc(-c2ccc(OC(F)(F)F)cc2)cc1CCC(=O)O [Compound 23]	–	7	47
CC(C)(C)c1ccc(CN(C(=O)C(=O)O)c2ccccc2Oc2ccc(OC(F)(F)F)cc2)cc1 [Compound 153]	20	54	93
Cc1cc(-c2ccc(OC(F)(F)F)cc2)ccc1N(Cc1ccc(C(C)(C)C)cc1)C(=O)C(=O)O [Compound 146]	33	73	90
CC(C)(C)c1ccc(COc2cc(CCC(=O)O)cc(Oc3ccc(OC(F)(F)F)cc3)c2)cc1 [Compound 410]	37	71	98
CC(C)(C)c1ccc(-c2ccc(N(Cc3ccccc3OC(F)(F)F)C(=O)C(=O)O)cc2)cc1 [Compound 202]	70	94	98
O=C(O)CCc1cc(-c2ccc(OC(F)(F)F)cc2)ccc1OCc1cccc(C(F)(F)F)c1 [Compound 58]	22	53	97
Cc1cc(N(Cc2ccc(C(C)(C)C)cc2)C(=O)C(=O)O)ccc1-c1ccc(OC(F)(F)F)cc1 [Compound 184]	59	86	85
O=C(O)C(=O)N(Cc1ccc(OC(F)(F)F)cc1)c1ccc(-c2ccccc2)cc1 [Compound 183]	–	11	29
CSc1ccc(CN(C(=O)C(=O)O)c2ccc(-c3ccc(OC(F)(F)F)cc3)cc2)cc1 [Compound 160]	14	26	68
CC(C)(C)c1ccc(COc2ccc(-c3ccc(OC(F)(F)F)cc3)cc2OCc2nnn[nH]2)cc1 [Compound 122]	29	63	99
CC(C)(C)c1ccc(Oc2cc(-c3ccc(OC(F)(F)F)cc3)ccc2/C=C/C(=O)O)cc1 [Compound 79]	39	84	90
CC(C)(C)c1ccc(CN(C(=O)C(=O)O)c2cccc(OCc3ccc(OC(F)(F)F)cc3)c2)cc1 [Compound 619]	48	83	92
CC(C)(C)c1ccc(COc2ccc(OCc3ccc(OC(F)(F)F)cc3)cc2/C=C/C(=O)O)cc1 [Compound 413]	38	66	84

Compound	Inhibition Rate of PAI-1 Activity (%) (Compound Concentration 5 μM)	Inhibition Rate of PAI-1 Activity (%) (Compound Concentration 10 μM)	Inhibition Rate of PAI-1 Activity (%) (Compound Concentration 25 μM)
CSc1ccc(-c2ccc(N(Cc3ccc(C(C)(C)C)cc3)C(=O)C(=O)O)cc2)cc1 [Compound 134]	–	14	75
CC(C)(C)c1ccc(CN(C(=O)C(=O)O)c2ccc(Cl)c(OCc3ccc(OC(F)(F)F)cc3)c2)cc1 [Compound 629]	62	92	88
O=C(O)C(=O)N(Cc1ccccc1)c1ccc(Oc2ccc(OC(F)(F)F)cc2)cc1 [Compound 154]	–	3	20
Cc1cc(C)cc(COc2ccc(-c3ccc(OC(F)(F)F)cc3)cc2CC(=O)O)c1 [Compound 11]	41	84	99
CCCOc1ccc(N(Cc2ccccc2)C(=O)C(=O)O)cc1-c1ccc(OC(F)(F)F)cc1 [Compound 210]	39	70	94
CSc1ccc(-c2ccc(OCc3ccc(C(C)(C)C)cc3)c(/C=C/C(=O)O)c2)cc1 [Compound 44]	16	25	21
CCCOc1ccc(N(CCCCc2ccccc2)C(=O)C(=O)O)cc1-c1ccc(OC(F)(F)F)cc1 [Compound 240]	62	91	95
CC(C)(C)c1ccc(CN(C(=O)C(=O)O)c2ccc(Oc3ccc(OC(F)(F)F)cc3)cc2)cc1 [Compound 132]	–	32	82
CC(C)(C)c1ccc(-c2ccc(OCc3ccc(OC(F)(F)F)cc3)c(CCC(=O)O)c2)cc1 [Compound 52]	28	64	94
CC(C)(C)c1ccc(COc2ccc(-c3ccc(OC(F)(F)F)cc3)cc2NC(=O)C(=O)[O-])cc1.[Na+] [Compound 6]	83	94	–
O=C(O)COc1cc(-c2ccc(OC(F)(F)F)cc2)ccc1OCCCCc1ccccc1 [Compound 115]	34	59	90
O=C(O)C(=O)N(CCCc1ccccc1)c1ccc(-c2ccc(OC(F)(F)F)cc2)cc1 [Compound 224]	29	63	86
O=C(O)C(=O)N(Cc1ccc(OC(F)(F)F)cc1)c1ccc(-c2ccc(OC(F)(F)F)cc2)cc1 [Compound 159]	21	45	92
COc1cc(-c2ccc(OC(F)(F)F)cc2)cc(/C=C/C(=O)O)c1OCc1ccc(C(C)(C)C)cc1 [Compound 81]	28	63	70
CC(C)(C)c1ccc(Oc2ccc(Oc3ccc(OC(F)(F)F)cc3)cc2C=CC(=O)O)cc1 [Compound 99]	31	66	99
O=C(O)C(=O)N(Cc1ccc(O)cc1)c1ccc(-c2ccc(OC(F)(F)F)cc2)cc1 [Compound 181]	10	11	31
CC(C)(C)c1ccc(Oc2cc(-c3ccc(OC(F)(F)F)cc3)ccc2OC(F)(F)C(=O)O)cc1 [Compound 120]	59	87	98
O=C(O)C(=O)N(CCCCc1ccccc1)c1ccc(-c2ccc(OC(F)(F)F)cc2)cc1 [Compound 225]	27	50	88
CCCCOc1ccc(-c2ccc(OC(F)(F)F)cc2)cc1N(CCCc1ccccc1)C(=O)C(=O)O [Compound 235]	66	89	93
CC(C)(C)c1ccc(CN(C(=O)C(=O)O)c2ccc(N3CCCCC3)c(-c3ccc(OC(F)(F)F)cc3)c2)cc1 [Compound 217]	86	84	–
CC(C)(C)c1ccc(CN(C(=O)CCC(=O)O)c2ccc(-c3ccc(OC(F)(F)F)cc3)cc2)cc1 [Compound 609]	38	69	>99
CC(C)(C)c1ccc(-c2ccc(OCc3ccc(C(F)(F)F)cc3)c(CCC(=O)O)c2)cc1 [Compound 70]	47	71	95
